Data from patent US5807825A, “Platelet aggregation inhibitors” (COR Therapeutics, Inc., priority 1995, dated 1998).
Where a SMILES comes first, the peptide text is derived from it. Bridges are numbered along the chain shown (N, C = ends).

Legend:
[1] = test system: thrombi formation in dog coronary arteries; test: Folts model of thrombosis, cyclic flow reductions (CFRs) in open chest dog coronary artery; assay type: in vivo
Description: A. Initiation of cyclic flow reductions (CFRs) in open chest dog. An occluder placed on the left anterior descending (LAD) coronary artery of a 20 kg dog, as previously described was performed.

GP IIb-IIIa = molecular target: T1, GP IIb-IIIa (Homo sapiens, UniProt P05106+P08514); test: plate assay: binding of labeled ligand (fibrinogen, vWF) to immobilized purified GP IIb-IIIa; conditions: plate assays, in words; FIGS. 2A-2C, 30A-30E
T1 construct: Purified platelet GP IIb-IIIa receptor was prepared as described by Fitzgerald, L. A., et al; from tissue; host or cells: platelets
Description: In the assay, GP IIb-IIIa, prepared in purified form, for example as described by Fitzgerald, L. A., et al., Anal Biochem (1985) 151:169-177, incorporated herein by reference, is coated onto a solid support such as beads, test tubes, or microtiter plates. […] Fibrinogen is typically provided at a concentration of about 5-50 nM and the test material can, if desired, be added at a series of dilutions. Typical incubations are 2-4 hr at 35° C., the time and temperature being interdependent.
After incubation, the solution containing the fibrinogen and test material is removed and the level of binding of fibrinogen measured by quantitating bound fibrinogen to GP IIb-IIIa. Any suitable means of detection may be used, but it is convenient to employ labeled fibrinogen, for example using radioactive, fluorescent or biotinylated labels. Such methods are well known and need not be elaborated here.
In this case, percent inhibition may be calculated using the amount of Fg bound in the control as representing the basis, so that [formula] Other measures of inhibition effectiveness, such as IC50, may also be used.
Purified platelet GP IIb-IIIa receptor was prepared as described by Fitzgerald, L. A., et al., Anal Biochem (1985) 151:169-177. […] After purification, the receptors were stored in 0.1% Triton X-100 at 0.1-1.0 mg/ml. […]
The labeled ligands were added to the receptor-coated wells at final concentration of 10 nM (100 ul/well) and incubated for 3 h at 30° C. in the presence or absence of the test samples. After incubation, the wells are aspirated to dryness and bound ligand is quantitated.
For ^125 I-labeled ligands, the protein is solubilized with 250 ul SDS. For biotinylated ligands, the bound protein is detected by the addition of antibiotin antibody conjugated to alkaline phosphatase followed by addition of substrate (p-nitrophenyl phosphate), and determination of the optical density of each well at 405 nm. […]

M21 melanoma cells = test: attachment of 35S-methionine labelled M21 melanoma cells to vitronectrin-coated plates; assay type: cell-based; conditions: FIGS. 31-34
Description: M21 melanoma cells, which express high levels of the vitronectrin receptor, were metabolically labelled with ^35 S-methionine, and then added to 24-well tissue culture plates coated with vitronectrin. An incubation period of 1 hr at 37° C. was allowed for cell attachment, and this was followed by a wash to remove non-adherent cells. After washing, the adherent cells were solubilized, and the supernatants placed in a liquid scintillation counter. The fraction of cells remaining adherent was calculated by dividing the cpm in the solubilized supernatants by the cpm in the total number of cells added to each well. The effects of purified snake venom peptides and synthetic cyclic peptides on cell adhesion was determined by including them with the M21 cells during the incubation period.
M21 melanoma cells were labelled with ^35 S-methionine, and then added to vitronectrin-coated plates in the presence of the indicated concentrations of purified snake venom peptides. Cell attachment was measured by solubilizing the cells remaining after an incubation and wash, as described in Section C, on page 40.

vitronectrin receptor [2] = molecular target: T2, vitronectrin receptor (Homo sapiens, UniProt P05106+P06756); test: plate assay: binding of labeled ligand (vitronectrin, vWF) to immobilized vitronectrin receptor; conditions: FIGS. 26-28
T2 construct: Vitronectrin receptor was prepared as described by Smith, J. W., J Biol Chem (1988) 263:18726-18731; from tissue

vitronectrin receptor [3] = molecular target: T2, vitronectrin receptor; conditions: background art; compared with same peptide before cyclization; cited from earlier work
fibronectin receptor = fibronectin receptor (Homo sapiens, UniProt P05556+P08648); conditions: background art; cited from earlier work
Chain of fibronectin receptor (P08648 42-894 limits assumed): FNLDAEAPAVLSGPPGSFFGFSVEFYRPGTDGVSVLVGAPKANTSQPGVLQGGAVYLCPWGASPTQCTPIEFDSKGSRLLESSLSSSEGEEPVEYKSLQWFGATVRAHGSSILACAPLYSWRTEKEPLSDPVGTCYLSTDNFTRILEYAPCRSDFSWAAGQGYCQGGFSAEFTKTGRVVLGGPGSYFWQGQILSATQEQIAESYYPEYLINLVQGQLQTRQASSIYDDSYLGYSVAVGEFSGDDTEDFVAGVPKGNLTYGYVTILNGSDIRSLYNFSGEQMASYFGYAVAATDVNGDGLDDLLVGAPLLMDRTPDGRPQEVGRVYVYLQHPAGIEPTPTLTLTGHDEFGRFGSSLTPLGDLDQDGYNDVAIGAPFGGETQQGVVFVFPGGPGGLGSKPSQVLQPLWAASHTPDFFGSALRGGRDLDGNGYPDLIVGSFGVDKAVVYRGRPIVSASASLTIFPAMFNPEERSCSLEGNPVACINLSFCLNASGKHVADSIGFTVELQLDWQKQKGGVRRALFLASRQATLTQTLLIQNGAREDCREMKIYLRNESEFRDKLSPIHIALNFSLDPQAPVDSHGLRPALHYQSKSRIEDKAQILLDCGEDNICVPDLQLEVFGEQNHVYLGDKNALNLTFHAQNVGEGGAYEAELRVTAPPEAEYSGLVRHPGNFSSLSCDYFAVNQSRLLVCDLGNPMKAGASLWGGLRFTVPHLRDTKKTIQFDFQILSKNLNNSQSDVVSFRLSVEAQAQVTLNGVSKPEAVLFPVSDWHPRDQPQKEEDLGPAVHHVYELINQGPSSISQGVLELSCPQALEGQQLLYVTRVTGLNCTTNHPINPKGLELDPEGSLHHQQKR
Chain of fibronectin receptor (P08648 895-1049 partner limits assumed): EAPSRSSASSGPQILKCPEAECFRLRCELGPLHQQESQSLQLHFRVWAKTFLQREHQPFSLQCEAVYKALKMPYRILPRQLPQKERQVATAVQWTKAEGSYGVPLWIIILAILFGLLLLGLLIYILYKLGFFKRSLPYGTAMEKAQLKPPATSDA
Chain of fibronectin receptor (P05556 21-798): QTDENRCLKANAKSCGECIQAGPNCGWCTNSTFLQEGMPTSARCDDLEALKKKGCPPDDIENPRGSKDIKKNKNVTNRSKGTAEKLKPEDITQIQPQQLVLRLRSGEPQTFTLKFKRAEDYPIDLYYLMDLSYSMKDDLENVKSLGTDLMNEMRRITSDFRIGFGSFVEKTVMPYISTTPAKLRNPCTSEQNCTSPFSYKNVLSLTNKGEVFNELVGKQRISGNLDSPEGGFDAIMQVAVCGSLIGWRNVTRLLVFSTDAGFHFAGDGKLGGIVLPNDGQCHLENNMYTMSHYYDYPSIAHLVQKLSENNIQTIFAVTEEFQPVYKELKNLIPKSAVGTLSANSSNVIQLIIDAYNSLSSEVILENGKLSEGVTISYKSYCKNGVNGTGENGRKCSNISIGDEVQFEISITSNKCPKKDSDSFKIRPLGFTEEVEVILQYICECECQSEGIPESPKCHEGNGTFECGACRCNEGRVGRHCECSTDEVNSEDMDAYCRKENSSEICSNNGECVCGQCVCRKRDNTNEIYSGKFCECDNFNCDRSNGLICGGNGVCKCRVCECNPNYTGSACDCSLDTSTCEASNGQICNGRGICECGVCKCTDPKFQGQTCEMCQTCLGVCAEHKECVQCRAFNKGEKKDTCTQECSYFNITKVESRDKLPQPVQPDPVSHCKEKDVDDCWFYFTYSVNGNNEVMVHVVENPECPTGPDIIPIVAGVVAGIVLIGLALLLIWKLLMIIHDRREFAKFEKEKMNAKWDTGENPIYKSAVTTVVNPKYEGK

T1 sequence (P08514 32-887 limits assumed): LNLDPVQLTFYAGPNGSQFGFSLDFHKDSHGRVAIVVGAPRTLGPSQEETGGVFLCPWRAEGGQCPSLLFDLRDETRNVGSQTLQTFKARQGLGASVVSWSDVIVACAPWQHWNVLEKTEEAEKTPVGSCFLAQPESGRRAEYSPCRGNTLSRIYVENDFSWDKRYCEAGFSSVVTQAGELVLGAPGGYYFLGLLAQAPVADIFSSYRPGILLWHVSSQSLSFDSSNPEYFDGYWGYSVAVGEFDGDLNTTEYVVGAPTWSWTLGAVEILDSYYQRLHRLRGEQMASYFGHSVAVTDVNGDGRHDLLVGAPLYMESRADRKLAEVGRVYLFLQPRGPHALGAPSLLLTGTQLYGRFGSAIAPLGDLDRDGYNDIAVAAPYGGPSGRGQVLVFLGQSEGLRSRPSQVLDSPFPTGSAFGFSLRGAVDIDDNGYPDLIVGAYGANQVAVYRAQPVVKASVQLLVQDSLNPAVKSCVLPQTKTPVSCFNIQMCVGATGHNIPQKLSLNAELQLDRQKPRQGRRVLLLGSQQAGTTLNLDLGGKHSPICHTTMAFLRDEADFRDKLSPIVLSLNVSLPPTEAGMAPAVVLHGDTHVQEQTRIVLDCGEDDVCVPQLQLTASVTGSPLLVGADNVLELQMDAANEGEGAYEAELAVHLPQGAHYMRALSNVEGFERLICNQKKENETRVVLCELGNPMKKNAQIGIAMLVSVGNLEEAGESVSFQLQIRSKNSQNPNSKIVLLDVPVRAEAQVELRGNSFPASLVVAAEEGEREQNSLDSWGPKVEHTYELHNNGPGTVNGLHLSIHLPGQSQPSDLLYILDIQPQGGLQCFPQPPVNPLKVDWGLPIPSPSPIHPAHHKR
T1 sequence (P08514 891-1039 partner limits assumed): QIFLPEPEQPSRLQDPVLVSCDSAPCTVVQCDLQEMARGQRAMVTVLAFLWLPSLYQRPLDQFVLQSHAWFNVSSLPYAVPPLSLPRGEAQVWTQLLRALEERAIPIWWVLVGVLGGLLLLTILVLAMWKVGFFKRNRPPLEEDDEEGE
T1 sequence (P05106 27-788): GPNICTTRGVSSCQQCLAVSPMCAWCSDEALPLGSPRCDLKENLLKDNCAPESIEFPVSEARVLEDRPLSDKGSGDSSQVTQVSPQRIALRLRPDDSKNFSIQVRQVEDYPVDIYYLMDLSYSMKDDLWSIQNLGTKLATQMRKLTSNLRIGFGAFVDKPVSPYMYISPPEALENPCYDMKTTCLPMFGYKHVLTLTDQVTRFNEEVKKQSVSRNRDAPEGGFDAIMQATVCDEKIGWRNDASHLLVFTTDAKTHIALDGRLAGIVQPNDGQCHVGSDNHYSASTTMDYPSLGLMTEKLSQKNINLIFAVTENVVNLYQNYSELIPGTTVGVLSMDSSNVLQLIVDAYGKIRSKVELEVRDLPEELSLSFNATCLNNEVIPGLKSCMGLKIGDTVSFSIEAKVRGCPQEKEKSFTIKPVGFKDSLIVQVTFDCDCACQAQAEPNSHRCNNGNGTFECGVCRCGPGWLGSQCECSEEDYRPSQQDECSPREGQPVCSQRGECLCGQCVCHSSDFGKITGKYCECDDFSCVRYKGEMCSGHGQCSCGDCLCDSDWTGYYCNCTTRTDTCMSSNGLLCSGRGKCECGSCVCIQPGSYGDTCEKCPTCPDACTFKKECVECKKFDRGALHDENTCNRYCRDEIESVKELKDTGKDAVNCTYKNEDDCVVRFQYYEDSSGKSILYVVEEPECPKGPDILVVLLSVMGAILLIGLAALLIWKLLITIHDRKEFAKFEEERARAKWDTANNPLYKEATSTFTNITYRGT
T2 sequence (P06756 31-889 limits assumed): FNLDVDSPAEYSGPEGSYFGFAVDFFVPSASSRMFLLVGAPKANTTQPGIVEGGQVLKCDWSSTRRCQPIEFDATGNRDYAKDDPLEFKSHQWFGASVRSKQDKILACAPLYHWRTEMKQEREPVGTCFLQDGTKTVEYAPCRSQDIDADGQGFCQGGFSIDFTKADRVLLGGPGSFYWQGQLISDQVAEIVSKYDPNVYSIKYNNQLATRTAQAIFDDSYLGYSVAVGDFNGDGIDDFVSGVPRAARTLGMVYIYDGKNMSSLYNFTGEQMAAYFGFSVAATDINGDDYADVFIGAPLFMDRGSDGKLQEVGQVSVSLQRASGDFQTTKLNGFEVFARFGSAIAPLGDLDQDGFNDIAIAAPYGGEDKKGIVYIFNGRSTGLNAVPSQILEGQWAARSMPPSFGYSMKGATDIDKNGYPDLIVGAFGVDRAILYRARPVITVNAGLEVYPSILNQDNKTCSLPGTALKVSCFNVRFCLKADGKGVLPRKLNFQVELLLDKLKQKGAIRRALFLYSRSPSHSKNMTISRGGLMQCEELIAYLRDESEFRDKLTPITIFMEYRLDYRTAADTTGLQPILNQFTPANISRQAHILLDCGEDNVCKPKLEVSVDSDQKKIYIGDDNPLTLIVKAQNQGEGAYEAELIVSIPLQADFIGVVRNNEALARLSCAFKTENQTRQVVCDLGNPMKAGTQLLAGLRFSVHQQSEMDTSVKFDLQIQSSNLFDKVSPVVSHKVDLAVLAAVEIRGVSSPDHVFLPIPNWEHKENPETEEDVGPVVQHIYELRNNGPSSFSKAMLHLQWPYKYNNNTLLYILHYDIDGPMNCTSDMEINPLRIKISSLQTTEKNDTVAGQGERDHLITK
T2 sequence (P06756 891-1048 partner limits assumed): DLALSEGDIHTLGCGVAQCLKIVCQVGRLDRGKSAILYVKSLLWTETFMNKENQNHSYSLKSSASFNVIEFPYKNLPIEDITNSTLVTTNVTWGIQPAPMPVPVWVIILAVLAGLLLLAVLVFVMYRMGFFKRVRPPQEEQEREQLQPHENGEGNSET
T2 sequence (P05106 27-788): as the sequence (P05106 27-788) above

Row | Compound | specificity: inhibition of fibrinogen/GP IIb-IIIa binding compared with vitronectrin/vitronectrin receptor binding (GP IIb-IIIa) | effect on M21 cell adhesion/attachment to vitronectrin, in words (M21 melanoma cells) | also measured
1 | C[C@H](NC(=O)[C@@H]1CSSC[C@H](NC(=O)CN)C(=O)NCC(=O)N[C@@H](CCCCN)C(=O)NCC(=O)N[C@@H](CC(=O)O)C(=O)N[C@@H](Cc2c[nH]c3ccccc23)C(=O)N2CCC[C@H]2C(=O)N1)C(N)=O [#3] | – | – | effect on cyclic flow reductions (CFRs) in LAD coronary artery ([1]; 10 mg into a peripheral vein, 20 kg open chest dog, FIG. 36): partial ablation of the CFRs; effect on cyclic flow reductions (CFRs) in LAD coronary artery ([1]; second infusion of 40 mg into a peripheral vein, FIG. 37): complete ablation of the CFRs
2 | C[C@H](NC(=O)[C@@H]1CSSC[C@H](NC(=O)CN)C(=O)N[C@@H](CCCCN)C(=O)NCC(=O)N[C@@H](CC(=O)O)C(=O)N[C@@H](Cc2c[nH]c3ccccc23)C(=O)N2CCC[C@H]2C(=O)N1)C(N)=O [#4] (H-GCKGDWPCA-NH2; disulfide 2-8) | highest differential | – | –
3 | NCCCC[C@@H]1NC(=O)CNC(=O)[C@@H](N)CSSC[C@@H](C(N)=O)NC(=O)[C@@H]2CCCN2C(=O)[C@H](Cc2c[nH]c3ccccc23)NC(=O)[C@H](CC(=O)O)NC(=O)CNC1=O [#5] (H-CGKGDWPC-NH2; disulfide 1-8) | quite specific | – | –
4 | C[C@H](NC(=O)[C@@H]1CSSC[C@H](NC(=O)CN)C(=O)N[C@@H](CCCCN)C(=O)NCC(=O)N[C@@H](CC(=O)O)C(=O)N[C@@H](Cc2c[nH]c3ccccc23)C(=O)N1)C(N)=O [#7] (H-GCKGDWCA-NH2; disulfide 2-7) | quite specific | – | –
5 | C[C@H](NC(=O)[C@@H]1CSSC[C@H](NC(=O)CN)C(=O)NCC(=O)N[C@@H](CCCCN)C(=O)NCC(=O)N[C@@H](CC(=O)O)C(=O)N[C@@H](Cc2c[nH]c3ccccc23)C(=O)N2CCC[C@H]2C(=O)N1)C(N)=O [Analog #3, G-C-G-K-G-D-W-P-C-A-NH2] | – | ineffective up to 60 uM | –
6 | N=C(N)NCCC[C@H](N)C(=O)NCC(=O)N[C@@H](CC(=O)O)C(=O)N[C@@H](CO)C(=O)O [RGDS, reference compound] | – | potent inhibitors of cell attachment | –
7 | C[C@H](NC(=O)[C@@H]1CSSC[C@H](NC(=O)CN)C(=O)NCC(=O)N[C@@H](CCCNC(=N)N)C(=O)NCC(=O)N[C@@H](CC(=O)O)C(=O)N[C@@H](Cc2c[nH]c3ccccc23)C(=O)N2CCC[C@H]2C(=O)N1)C(N)=O [reference compound] (H-GCGRGDWPCA-NH2; disulfide 2-9) | – | potent inhibitors of cell attachment | –
8 | ECADGLCCDQCRFLKKGTVCRVAKGDWNDDTCTGQSC- D-C-P-R-N-G-L-Y-G (ECADGLCCDQCRFLKKGTVCRVAKGDWNDDTCTGQSCDCPRNGLYG) [Analog #1] | – | neither barbourin nor Peptide 1 (truncated barbourin) had a significant effect | –
9 | EEPCATGPCCRRCKFKRAGKVCRVAKGDWNNDYCTGK- S-C-D-C-P-R-N-P-W-N-G (EEPCATGPCCRRCKFKRAGKVCRVAKGDWNNDYCTGKSCDCPRNPWNG) [Analog #2] | – | – | inhibition of vitronectrin binding to vitronectrin receptor, in words (vitronectrin receptor [2]): inability to inhibit the binding of vitronectrin to the vitronectrin receptor
10 | Gly-Pen-Gly-Arg-Gly-Asp-Ser-Pro-Cys-Ala (GRGDSPCA; N-terminal Gly-Pen; Pen-Cys disulfide cyclisation; printed: Gly-Arg-Gly-Asp-Ser-Pro-Cys-Ala) [cyclic peptide, disulfide bridge between Pen and Cys (Pierschbacher)] | – | – | inhibition of vitronectrin binding, in words (vitronectrin receptor [3]): able to inhibit vitronectrin binding more strongly than the same peptide before cyclization; inhibition of fibronectin binding, in words (fibronectin receptor): ineffective in inhibiting fibronectin binding
